As usually defined, the melting point is the temperature, or range, at which the solid turns liquid. For the compound `COc1cc(C)c(Cc2cc(O)c(OC)cc2C)cc1O` [Reference Example 1, 5,5′-methylenebis(2-methoxy-4-methylphenol)], the melting point was 134 to 136 °C.

Source of the values: patent publication US20210070684A1, “PRODUCTION OF HIGHLY PURE META,META-COUPLED BIS(4-ALKYLPHENOL) DERIVATIVES AND USES THEREOF” (KATHOLIEKE UNIVERSITEIT LEUVEN, priority 2017, published 2021).
